This passage reports IC50, EC50 and CC50 results from patent US11697650B2, “Compounds having tetrahydroindolizine-1-carboxamide as BCL-2 inhibitors” (Eil Therapeutics, Inc., priority 2021, dated 2023).

Data set [1] has as its target BCL-XL (Homo sapiens (Human), UniProt Q07817). The data set can be described thus: BCL-XL TR-FRET Assay (primary PPI inhibition). It is filed as binding. The settings on record: 60 min incubation; read-out: BCLxL (IC50 code, BCL-XL TR-FRET). Here is the method:
BCL-XL TR-FRET Assay (BPS Bioscience, #50223)
The following assay concentrations and times were used: 10.5 ng BCL-XL, 5 μl of 1:100 anti-His Tb-labeled donor, 5 μl of 1:100 Dye-labeled acceptor, 5 μl of 1:80 BCL-XL Peptide Ligand, and 2 μl of test compound, with 60 min incubation time. The results of the assay were read using a Clariostar (BMG Labtech) plate reader with the following parameters: TR FRET, 340ex/620 and 665em; 60 μsec Delay; and 500 μsec integration.
A general note: In TR-FRET formats the signal depends on donor and acceptor labels being close together.

Data set [2] concerns caspase-3 and -7 activities in RS4-11 cells. The data set can be described thus: Caspase-3/7 activation (Caspase-Glo 3/7) in RS4-11 cells. It is filed as cell-based. The note with it: Homo sapiens, 3.5 h incubation, read-out: Cas-3/7 (EC50 code). Here is the method: The Caspase-Glo 3/7 Assay is homogeneous, luminescent assay that measures caspase-3 and -7 activities. The assay provides a luminogenic caspase-3/7 substrate, which contains the tetrapeptide sequence DEVD, in a reagent optimized for caspase activity.
Incubate RS4-11 cells with varying concentrations of test compounds for 3.5 h in a humidified incubator at 37° C. and 5% CO2 and 30 min at r.t. Add 15 μl Caspase-Glo reagent to each well and incubate the plate for 30 min at r.t. Read on ClarioStar Plus instrument.
Promega Caspase-Glo (Promega, #8212); Frozen RS4-11 cells; 384-well white plate (Corning, #3570).
ClarioStar Plus; Biomek FX for liquid handling (Beckman Coulter).

The subject of data set [3] is RS4-11 cells. The data set can be described thus: Cell viability assay (CellTiter-Glo), RS4-11. Type of data set: cell-based. The note with it: Homo sapiens, 72 h, 3 days, read-out: RS4-11 (CC50 code). Here is the method: (§1) Culture medium for HEK293—DMEM (PanEco, Cat #C420) was used. RPMI-1640 (PanEco, Cat #C363) was used for the rest of the cell lines.
(§2) Compounds were prepared as 200× stocks with serial dilution in 100% DMSO with a final concentration of 1×.
(§3) […] were dispersed in 40 μL aliquots in 384-well plates at a concentration of 2000 cells per well for HEK293 and at a concentration of 4000 cells per well for the rest of the cell lines using a robotic station Biomek (Beckman). Before adding compounds, the cells were incubated at 37° C. (HEK293 were incubated for a day before adding compounds).
(§4) A dilution plate was prepared by pouring 78 μL of the appropriate culture medium using a robotic station Biomek (Beckman). Sequentially, using a robotic station, 2 μL of substances were taken and added to 78 μL of culture medium (dilution of compounds 40×). 10 μL aliquots were taken and added to the plates of the cells (dilution of compounds 5×). The plates were incubated for 3 days at a temperature 37° C. After 3 days, 10 μL of CellTiter-Glo (Promega) was added to the cells and the luminescence was measured.
Background: ATP-based viability assays read luminescence as a measure of living cells.

Data set [4] is described as follows: Cell viability assay (CellTiter-Glo), HEK293. Type of data set: cell-based. The settings on record: human, HEK293 cells, read-out: HEK293 (CC50 code). How it is done:
as §1, §2, §3, §4

In data set [5] the test system is MOLT-4 cells. Briefly: Cell viability assay (CellTiter-Glo), MOLT-4. Type of data set: cell-based. The note with it: Homo sapiens, 72 h, 3 days, read-out: MOLT-4 (CC50 code). Here is the method:
as §1, §2, §3, §4

Data set [6] has as its target BCL-2 (Homo sapiens (Human), UniProt P10415). The data set can be described thus: BCL-2 TR-FRET Assay (primary PPI inhibition). It is filed as binding. The note with it: 60 min incubation; read-out: BCL2 (IC50 code, BCL-2 TR-FRET). Here is the method: BCL-2 TR-FRET Assay (BPS Bioscience, #50222)
The following assay concentrations and times were used: 3 ng BCL-2, 5 μl of 1:100 anti-His Tb-labeled donor, 5 μl of 1:100 Dye-labeled acceptor, 5 μl of 1:40 BCL-2 Peptide Ligand, and 2 ul of test compound, with 60 min incubation time. The results of the assay were read using a Clariostar (BMG Labtech) plate reader with the following parameters: TR FRET, 340ex/620 and 665em; 60 μsec Delay; and 500 μsec integration.

Chain of BCL-2 (P10415 whole entry): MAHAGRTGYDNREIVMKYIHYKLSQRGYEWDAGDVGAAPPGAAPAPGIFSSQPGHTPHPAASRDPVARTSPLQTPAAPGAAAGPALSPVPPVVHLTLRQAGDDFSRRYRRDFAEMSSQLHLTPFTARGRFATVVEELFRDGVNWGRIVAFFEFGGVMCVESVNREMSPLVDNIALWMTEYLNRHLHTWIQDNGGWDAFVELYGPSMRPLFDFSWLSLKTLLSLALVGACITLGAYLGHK
Chain of BCL-XL (Q07817 whole entry): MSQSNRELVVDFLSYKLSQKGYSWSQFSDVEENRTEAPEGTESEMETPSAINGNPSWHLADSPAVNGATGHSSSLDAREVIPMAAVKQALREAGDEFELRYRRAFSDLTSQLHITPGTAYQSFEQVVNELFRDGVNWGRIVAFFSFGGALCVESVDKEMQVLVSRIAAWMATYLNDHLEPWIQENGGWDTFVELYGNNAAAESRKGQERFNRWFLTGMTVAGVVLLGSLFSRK

For orientation: IC50 means the concentration that gives 50% inhibition. One may read the CC50 as the concentration at which the toxic effect on the cells reaches its halfway point. On to `O=C(c1cc(-c2cc3c(cc2C(=O)N2Cc4ccccc4C[C@H]2CN2CCOCC2)OCO3)n2c1CCCC2)N(Cc1ccncc1)c1ccc(O)cc1` [Compound 9, N-(4-hydroxyphenyl)-3-(6-{[(3S)-3-(morpholin-4-ylmethyl)-3,4-dihydroisoquinolin-2(1H)-yl]carbonyl}-1,3-benzodioxol-5-yl)-N-(pyridin-4-ylmethyl)-5,6,7,8-tetrahydroindolizine-1-carboxamide], for which the IC50 in data set [1] was 2000 to 4000 nM; in data set [6] it was no more than 5 nM. Further, in data set [2], the EC50 lay within 100 to 250 nM. The results for the 50% cytotoxic concentration (CC50) in data set [3] and in data set [5] were 100 to 200 nM and 2000 to 10000 nM, respectively. Also, the CC50 at 3 days in data set [4] lay within 10000 to 25000 nM.

For `Cc1cccc(CN(C(=O)c2cc(-c3cc4c(cc3C(=O)N3Cc5ccccc5C[C@H]3CN3CCOCC3)OCO4)n3c2CCCC3)c2ccc(O)cc2)c1` [Compound 14, N-(4-hydroxyphenyl)-N-(3-methylbenzyl)-3-(6-{[(3S)-3-(morpholin-4-ylmethyl)-3,4-dihydroisoquinolin-2(1H)-yl]carbonyl}-1,3-benzodioxol-5-yl)-5,6,7,8-tetrahydroindolizine-1-carboxamide], the IC50 in data set [1] lay in the range of 2000 to 4000 nM; in data set [6], 5 to 10 nM. Moreover, the EC50 in data set [2] was greater than 250 nM. Further, the CC50 in data set [3] is no more than 100 nM; in data set [5], 2000 to 10000 nM. In addition, the CC50 at 3 days in data set [4] is greater than 25000 nM.

With `O=C(c1cc(-c2cc3c(cc2C(=O)N2Cc4ccccc4C[C@H]2CN2CCOCC2)OCO3)n2c1CCCC2)N(Cc1ccccc1)c1ccc(O)cc1` [Compound 15, N-benzyl-N-(4-hydroxyphenyl)-3-(6-{[(3S)-3-(morpholin-4-ylmethyl)-3,4-dihydroisoquinolin-2(1H)-yl]carbonyl}-1,3-benzodioxol-5-yl)-5,6,7,8-tetrahydroindolizine-1-carboxamide], the results for the IC50 in data set [1] and in data set [6] were no more than 2000 nM and 5 to 10 nM, respectively. For the same molecule, the EC50 in data set [2] lay within 100 to 250 nM. The CC50 was 100 to 200 nM in data set [3] and no more than 2000 nM in data set [5]. Moreover, the CC50 at 3 days in data set [4] is greater than 25000 nM.

In the case of `O=C(c1cc(-c2cc3c(cc2C(=O)N2Cc4ccccc4C[C@H]2CN2CCOCC2)OCO3)n2c1CCCC2)N(Cc1cccc(C(F)(F)F)c1)c1ccc(O)cc1` [Compound 16, N-(4-hydroxyphenyl)-3-(6-{[(3S)-3-(morpholin-4-ylmethyl)-3,4-dihydroisoquinolin-2(1H)-yl]carbonyl}-1,3-benzodioxol-5-yl)-N-[3-(trifluoromethyl)benzyl]-5,6,7,8-tetrahydroindolizine-1-carboxamide], the values for the IC50 in data set [1] and in data set [6] were greater than 4000 nM and 10 to 50 nM, respectively. Besides, in data set [2], the EC50 lay in the range of 100 to 250 nM. In addition, the values for the half-maximal cytotoxic concentration (CC50) in data set [3] and in data set [5] were 100 to 200 nM and greater than 10000 nM, respectively. For the same molecule, the CC50 at 3 days in data set [4] was greater than 25000 nM.

With `O=C(c1cc(-c2cc3c(cc2C(=O)N2Cc4ccccc4C[C@H]2CN2CCOCC2)OCO3)n2c1CCCC2)N(Cc1ccccc1-c1ccccc1)c1ccc(O)cc1` [Compound 18, N-(biphenyl-2-ylmethyl)-N-(4-hydroxyphenyl)-3-(6-{[(3S)-3-(morpholin-4-ylmethyl)-3,4-dihydroisoquinolin-2(1H)-yl]carbonyl}-1,3-benzodioxol-5-yl)-5,6,7,8-tetrahydroindolizine-1-carboxamide], the IC50 in data set [1] is no more than 2000 nM; in data set [6], 10 to 50 nM. For the same molecule, in data set [2], the EC50 was greater than 250 nM. Also, the CC50 in data set [3] was greater than 200 nM; in data set [5] it was 2000 to 10000 nM. In addition, the CC50 at 3 days in data set [4] is greater than 25000 nM.

On to `O=C(c1cc(-c2cc3c(cc2C(=O)N2Cc4ccccc4C[C@H]2CN2CCOCC2)OCO3)n2c1CCCC2)N(Cc1c(F)cccc1F)c1ccc(O)cc1` [Compound 19, N-(2,6-difluorobenzyl)-N-(4-hydroxyphenyl)-3-(6-{[(3S)-3-(morpholin-4-ylmethyl)-3,4-dihydroisoquinolin-2(1H)-yl]carbonyl}-1,3-benzodioxol-5-yl)-5,6,7,8-tetrahydroindolizine-1-carboxamide], for which the IC50 is greater than 4000 nM in data set [1] and 5 to 10 nM in data set [6]. In addition, the EC50 in data set [2] was greater than 250 nM. Besides, the CC50 was greater than 200 nM in data set [3] and 2000 to 10000 nM in data set [5]. The CC50 at 3 days in data set [4] is greater than 25000 nM.

For `Cc1ccc(CN(C(=O)c2cc(-c3cc4c(cc3C(=O)N3Cc5ccccc5C[C@H]3CN3CCOCC3)OCO4)n3c2CCCC3)c2ccc(O)cc2)cc1` [Compound 20, N-(4-hydroxyphenyl)-N-(4-methylbenzyl)-3-(6-{[(3S)-3-(morpholin-4-ylmethyl)-3,4-dihydroisoquinolin-2(1H)-yl]carbonyl}-1,3-benzodioxol-5-yl)-5,6,7,8-tetrahydroindolizine-1-carboxamide], the IC50 in data set [1] is 2000 to 4000 nM; in data set [6] it was 5 to 10 nM. Further, the EC50 in data set [2] was greater than 250 nM. Moreover, the CC50 in data set [3] was 100 to 200 nM; in data set [5] it was 2000 to 10000 nM. Also, the CC50 at 3 days in data set [4] was no more than 10000 nM.

Take `O=C(c1cc(-c2cc3c(cc2C(=O)N2Cc4ccccc4C[C@H]2CN2CCOCC2)OCO3)n2c1CCCC2)N(Cc1cccc(F)c1)c1ccc(O)cc1` [Compound 21, N-(3-fluorobenzyl)-N-(4-hydroxyphenyl)-3-(6-{[(3S)-3-(morpholin-4-ylmethyl)-3,4-dihydroisoquinolin-2(1H)-yl]carbonyl}-1,3-benzodioxol-5-yl)-5,6,7,8-tetrahydroindolizine-1-carboxamide]: the IC50 in data set [1] was in the range of 2000 to 4000 nM; in data set [6], 10 to 50 nM. In addition, the EC50 in data set [2] is greater than 250 nM. In addition, the CC50 in data set [3] was 100 to 200 nM; in data set [5], greater than 10000 nM. For the same molecule, in data set [4], the 50% cytotoxic concentration (CC50) at 3 days is greater than 25000 nM.

Consider `COc1c(C)cnc(CN(C(=O)c2cc(-c3cc4c(cc3C(=O)N3Cc5ccccc5C[C@H]3CN3CCOCC3)OCO4)n3c2CCCC3)c2ccc(O)cc2)c1C` [Compound 23, N-(4-hydroxyphenyl)-N-[(4-methoxy-3,5-dimethylpyridin-2-yl)methyl]-3-(6-{[(3S)-3-(morpholin-4-ylmethyl)-3,4-dihydroisoquinolin-2(1H)-yl]carbonyl}-1,3-benzodioxol-5-yl)-5,6,7,8-tetrahydroindolizine-1-carboxamide], for which the IC50 in data set [1] is greater than 4000 nM; in data set [6] it was 10 to 50 nM. Moreover, the EC50 in data set [2] was greater than 250 nM. Further, the CC50 in data set [3] is greater than 200 nM; in data set [5], greater than 10000 nM. Also, the CC50 at 3 days in data set [4] fell in the range of 10000 to 25000 nM.

For the molecule `O=C(c1cc(-c2cc3c(cc2C(=O)N2Cc4ccccc4C[C@H]2CN2CCOCC2)OCO3)n2c1CCCC2)N(Cc1ccc(C(F)(F)F)cc1)c1ccc(O)cc1` [Compound 24, N-(4-hydroxyphenyl)-3-(6-{[(3S)-3-(morpholin-4-ylmethyl)-3,4-dihydroisoquinolin-2(1H)-yl]carbonyl}-1,3-benzodioxol-5-yl)-N-[4-(trifluoromethyl)benzyl]-5,6,7,8-tetrahydroindolizine-1-carboxamide], the IC50 in data set [1] was greater than 4000 nM; in data set [6], 10 to 50 nM. In data set [2], the EC50 is greater than 250 nM. The CC50 in data set [3] was greater than 200 nM; in data set [5] it was 2000 to 10000 nM. The CC50 at 3 days in data set [4] is no more than 10000 nM.

Regarding `COc1ccccc1CN(C(=O)c1cc(-c2cc3c(cc2C(=O)N2Cc4ccccc4C[C@H]2CN2CCOCC2)OCO3)n2c1CCCC2)c1ccc(O)cc1` [Compound 31, N-(4-hydroxyphenyl)-N-(2-methoxybenzyl)-3-(6-{[(3S)-3-(morpholin-4-ylmethyl)-3,4-dihydroisoquinolin-2(1H)-yl]carbonyl}-1,3-benzodioxol-5-yl)-5,6,7,8-tetrahydroindolizine-1-carboxamide], the IC50 in data set [1] was no more than 2000 nM; in data set [6], no more than 5 nM. Besides, the EC50 in data set [2] is no more than 100 nM. Further, the CC50 is no more than 100 nM in data set [3] and no more than 2000 nM in data set [5]. Also, in data set [4], the CC50 at 3 days is greater than 25000 nM.
